Consider 19 compounds from EP3033337B1, “SUBSTITUTED IMIDAZOLES AS N-TYPE CALCIUM CHANNEL BLOCKERS” (Janssen Pharmaceutica NV, priority 2013, dated 2015).

In test [1] the target is T1, human N-type Ca channel (Homo sapiens, UniProt Q00975). Put plainly: Calcium influx assay (FDSS), KCl depolarization, Fluo8 dye. It counts as cell-based. Further details: host or cells: HEK 293. The conditions noted are these: HEK 293 cells expressing human N-type Ca channel; 100 mM KCl; read-out: N Type IC50 Data FDSS. The procedure: All cell culture reagents were procured from HyClone and other reagents were from Fisher. Recombinant HEK 293 cells expressing human N-type Ca channel (Millipore) were maintained in DMEM F12 containing 10% FBS and selection antibiotics at 37 °C in 5% CO2.
T1 sequence (Q00975 whole entry): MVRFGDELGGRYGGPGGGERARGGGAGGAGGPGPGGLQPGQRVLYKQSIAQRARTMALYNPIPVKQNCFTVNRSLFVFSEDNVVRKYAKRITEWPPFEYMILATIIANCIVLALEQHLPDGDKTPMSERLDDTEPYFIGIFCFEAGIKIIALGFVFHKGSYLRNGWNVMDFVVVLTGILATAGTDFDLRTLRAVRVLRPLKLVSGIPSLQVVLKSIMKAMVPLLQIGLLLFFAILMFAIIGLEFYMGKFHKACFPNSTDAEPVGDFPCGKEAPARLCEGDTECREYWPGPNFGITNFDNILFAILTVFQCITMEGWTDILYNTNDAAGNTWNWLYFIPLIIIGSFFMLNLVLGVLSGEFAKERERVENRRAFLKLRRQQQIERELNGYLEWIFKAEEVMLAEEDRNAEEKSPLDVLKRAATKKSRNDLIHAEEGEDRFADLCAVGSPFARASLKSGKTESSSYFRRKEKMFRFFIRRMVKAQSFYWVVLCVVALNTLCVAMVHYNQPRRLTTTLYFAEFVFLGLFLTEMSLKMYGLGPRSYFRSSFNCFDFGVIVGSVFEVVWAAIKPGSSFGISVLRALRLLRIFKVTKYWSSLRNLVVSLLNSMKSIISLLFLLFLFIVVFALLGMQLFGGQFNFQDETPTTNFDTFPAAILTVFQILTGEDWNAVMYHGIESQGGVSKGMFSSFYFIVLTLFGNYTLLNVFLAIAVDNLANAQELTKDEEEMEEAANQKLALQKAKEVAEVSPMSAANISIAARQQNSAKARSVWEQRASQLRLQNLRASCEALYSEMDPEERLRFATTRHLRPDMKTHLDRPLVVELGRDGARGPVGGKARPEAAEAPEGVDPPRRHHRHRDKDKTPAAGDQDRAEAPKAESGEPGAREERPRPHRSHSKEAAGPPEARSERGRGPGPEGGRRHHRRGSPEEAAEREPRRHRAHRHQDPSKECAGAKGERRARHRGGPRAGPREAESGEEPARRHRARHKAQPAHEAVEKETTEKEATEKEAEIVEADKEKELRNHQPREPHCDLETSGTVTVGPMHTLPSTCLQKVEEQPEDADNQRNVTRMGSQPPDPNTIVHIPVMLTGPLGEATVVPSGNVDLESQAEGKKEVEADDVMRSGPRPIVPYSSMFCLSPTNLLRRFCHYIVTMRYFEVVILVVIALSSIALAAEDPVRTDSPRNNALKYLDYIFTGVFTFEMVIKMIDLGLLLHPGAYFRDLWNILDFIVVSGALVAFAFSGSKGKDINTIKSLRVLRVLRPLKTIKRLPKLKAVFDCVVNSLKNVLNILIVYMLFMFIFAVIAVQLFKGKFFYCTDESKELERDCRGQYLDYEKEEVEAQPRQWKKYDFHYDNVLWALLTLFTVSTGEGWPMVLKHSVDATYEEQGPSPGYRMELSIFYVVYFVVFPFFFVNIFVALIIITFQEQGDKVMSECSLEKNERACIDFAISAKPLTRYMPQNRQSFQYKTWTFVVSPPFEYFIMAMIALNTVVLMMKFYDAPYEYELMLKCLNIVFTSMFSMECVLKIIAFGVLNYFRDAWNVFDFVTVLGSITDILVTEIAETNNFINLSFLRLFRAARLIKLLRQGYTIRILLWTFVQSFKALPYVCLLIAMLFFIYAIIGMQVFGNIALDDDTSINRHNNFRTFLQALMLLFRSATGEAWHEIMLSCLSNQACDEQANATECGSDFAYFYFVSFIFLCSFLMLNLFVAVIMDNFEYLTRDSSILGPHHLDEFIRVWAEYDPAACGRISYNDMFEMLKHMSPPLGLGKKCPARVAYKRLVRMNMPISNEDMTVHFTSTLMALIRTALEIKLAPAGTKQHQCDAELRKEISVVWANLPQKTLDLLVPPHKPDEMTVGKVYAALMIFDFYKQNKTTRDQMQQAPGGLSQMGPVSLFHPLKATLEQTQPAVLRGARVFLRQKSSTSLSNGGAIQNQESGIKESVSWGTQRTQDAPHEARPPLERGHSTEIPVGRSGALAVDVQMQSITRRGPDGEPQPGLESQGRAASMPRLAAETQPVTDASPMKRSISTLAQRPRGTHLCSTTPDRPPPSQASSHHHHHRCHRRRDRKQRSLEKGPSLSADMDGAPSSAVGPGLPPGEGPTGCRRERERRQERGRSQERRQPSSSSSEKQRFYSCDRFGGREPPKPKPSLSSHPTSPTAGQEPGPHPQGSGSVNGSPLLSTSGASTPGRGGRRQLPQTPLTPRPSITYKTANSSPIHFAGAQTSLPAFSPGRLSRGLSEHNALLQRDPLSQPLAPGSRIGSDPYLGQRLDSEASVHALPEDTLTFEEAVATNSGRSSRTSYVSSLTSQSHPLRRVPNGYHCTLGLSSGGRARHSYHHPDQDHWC
T1 sequence (P54284 whole entry partner): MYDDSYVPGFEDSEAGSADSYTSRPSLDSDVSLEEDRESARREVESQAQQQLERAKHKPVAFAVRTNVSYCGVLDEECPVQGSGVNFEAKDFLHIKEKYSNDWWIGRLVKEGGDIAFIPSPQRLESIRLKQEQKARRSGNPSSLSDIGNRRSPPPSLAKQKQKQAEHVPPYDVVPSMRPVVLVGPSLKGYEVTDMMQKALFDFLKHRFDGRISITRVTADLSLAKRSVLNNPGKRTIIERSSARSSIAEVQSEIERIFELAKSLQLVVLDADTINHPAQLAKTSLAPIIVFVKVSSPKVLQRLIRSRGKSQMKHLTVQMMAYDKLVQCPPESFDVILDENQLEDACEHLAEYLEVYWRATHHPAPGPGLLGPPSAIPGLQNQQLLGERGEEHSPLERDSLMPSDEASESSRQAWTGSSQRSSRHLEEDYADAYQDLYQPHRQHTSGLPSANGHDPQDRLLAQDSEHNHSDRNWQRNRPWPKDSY
T1 sequence (P54289 25-956 partner limits assumed): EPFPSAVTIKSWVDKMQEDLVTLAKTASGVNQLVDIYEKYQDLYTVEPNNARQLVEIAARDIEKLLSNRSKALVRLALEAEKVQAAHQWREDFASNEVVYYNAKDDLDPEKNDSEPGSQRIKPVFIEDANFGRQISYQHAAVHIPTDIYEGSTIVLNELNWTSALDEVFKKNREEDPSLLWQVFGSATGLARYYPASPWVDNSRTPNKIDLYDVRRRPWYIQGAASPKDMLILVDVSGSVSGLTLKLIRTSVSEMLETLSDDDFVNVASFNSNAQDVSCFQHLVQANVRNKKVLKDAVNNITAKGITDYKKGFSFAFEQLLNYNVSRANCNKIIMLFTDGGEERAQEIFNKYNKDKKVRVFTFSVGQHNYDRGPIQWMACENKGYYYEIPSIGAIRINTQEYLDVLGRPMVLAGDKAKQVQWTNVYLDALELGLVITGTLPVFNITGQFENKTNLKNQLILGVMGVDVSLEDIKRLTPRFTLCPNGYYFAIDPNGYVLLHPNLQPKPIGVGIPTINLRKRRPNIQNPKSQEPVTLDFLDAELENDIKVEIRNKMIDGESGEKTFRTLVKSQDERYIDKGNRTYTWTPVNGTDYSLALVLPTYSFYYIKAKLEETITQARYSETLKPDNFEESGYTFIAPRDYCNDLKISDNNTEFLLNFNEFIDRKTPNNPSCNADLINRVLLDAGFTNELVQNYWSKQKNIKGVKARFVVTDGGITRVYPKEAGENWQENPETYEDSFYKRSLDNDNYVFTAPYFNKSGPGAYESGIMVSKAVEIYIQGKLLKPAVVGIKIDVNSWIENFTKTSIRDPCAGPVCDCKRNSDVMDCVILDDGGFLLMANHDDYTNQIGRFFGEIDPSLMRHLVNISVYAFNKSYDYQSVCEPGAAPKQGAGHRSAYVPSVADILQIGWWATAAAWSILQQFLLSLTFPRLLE
T1 sequence (P54289 957-1103 partner limits assumed): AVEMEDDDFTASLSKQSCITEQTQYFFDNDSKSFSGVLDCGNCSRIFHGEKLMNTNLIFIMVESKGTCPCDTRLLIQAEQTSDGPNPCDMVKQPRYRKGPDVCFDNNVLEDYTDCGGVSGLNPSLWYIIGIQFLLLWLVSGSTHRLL
Cells were incubated at 30 °C in 5% CO2 overnight. The medium was removed and cells were loaded with Fluo8 dye (AAT Bioquest) at 37 °C and 30 °C, 30 min each in darkness. Cells were washed four times with wash buffer (16 mM Herep pH 7.2, 2 mM CaCl2, 1 mM MgCl2, 5 mM glucose, 140 mM choline chloride and 2 mM KCl) leaving 15 µL buffer after the last wash. Compounds of Formula (I), serially diluted, were added to the cell plate. The plates were incubated in darkness for 15 min. Cells were depolarized with 100 mM KCl and Ca influx was measured.

For test [2], the target named is T1, human N-type Ca channel. In words: Electrophysiological response, QPatch (depolarization -80 mV to +20 mV).
Experimental: The recombinant cell line described above was used in the measurement of electrophysiological properties with QPatch (Sophion). Cells were maintained in culture as mentioned above. Prior to the experiment, the flasks were moved to 30 °C and incubated for 48-72 hrs. On the day of assaying, cells were detached and harvested. The cell pellet was re-suspended in SMF4HEK (HyClone)/25mM HEPS at 2-5 million/ mL and placed on the QStirrer of the QPatch for 30-60 min prior to the start of the assay. […] Microtiter-Plate/Reference Buffer contained 140 mM TEA-Cl, 10mM BaCl2, 0.8 mM MgCl2, 10 mM HEPES pH ∼7.4 adjusted with TEA-OH/HCl, and ∼300mOsm. Cells were transferred to a QPatch 48 plate and gigaseal was formed. The plate was perfused with intracellular and extracellular buffer. […] In brief, cells were depolarized from resting potential of -80 mV to +20 mV and current was recorded. Data was plotted as percent inhibition vs concentration of the compound and IC50 values were generated using Graphpad Prism non-linear regression analysis.
The mark [3] stands for this setting: read-out: N Type IC50 Data Qpatch Pulse=15, Pulse=15, concentration range 0.01-1 µM.
Where [4] appears, read: N Type IC50 Data Qpatch Pulse=1, Pulse=1, concentration range 0.01-1 µM.
Where [5] appears, read: Pulse=1, concentration range 0.01-0.3 µM.
Setting [6] is: Pulse=15, concentration range 0.01-0.3 µM.
Where [7] appears, read: read-out: Qpatch Pulse=1 (percent inhibition).
The mark [8] stands for this setting: N Type IC50 Data Qpatch Pulse=1, Pulse=1, concentration range 0.3-10 µM.
Setting [9] is: N Type IC50 Data Qpatch Pulse=15, Pulse=15, concentration range 0.3-10 µM.

Where two headings read alike, the source gives them in different places. Where only a bound is given, the exact number is not on record here.

With `COc1ccc(-n2cc(C3CC(C)(C)OC(C)(C)C3)nc2-c2cccnc2OC)cc1F` [Compound 23, 3-(1-(3-fluoro-4-methoxyphenyl)-4-(2,2,6,6-tetramethyltetrahydro-2H-pyran-4-yl)-1H-imidazol-2-yl)-2-methoxypyridine], the IC50 at human N-type Ca channel [1] was 0.31 µM; on human N-type Ca channel [2] (setting [3]), more than 1 µM.

For the compound `COc1cc(-n2cc(C3CC(C)(C)OC(C)(C)C3)nc2-c2cccnc2OC)ccc1F` [Compound 24, 3-(1-(4-fluoro-3-methoxyphenyl)-4-(2,2,6,6-tetramethyltetrahydro-2H-pyran-4-yl)-1H-imidazol-2-yl)-2-methoxypyridine], the IC50 at human N-type Ca channel [1] was 7.15 µM; on human N-type Ca channel [2] (setting [3]) it was more than 1 µM.

Consider `COc1ncccc1-c1nc(C2CC(C)(C)OC(C)(C)C2)cn1-c1ccc(C)c(C#N)c1` [Compound 25, 5-(2-(2-methoxypyridin-3-yl)-4-(2,2,6,6-tetramethyltetrahydro-2H-pyran-4-yl)-1H-imidazol-1-yl)-2-methylbenzonitrile], for which the IC50 at human N-type Ca channel [1] was 0.818 µM; at human N-type Ca channel [2] (setting [4]), more than 1 µM; on human N-type Ca channel [2] (setting [3]) it was more than 1 µM.

In the case of `Cn1cnnc1-c1nc(C2CC(C)(C)OC(C)(C)C2)cn1-c1ccc(Cl)cc1` [Compound 26, 3-(1-(4-chlorophenyl)-4-(2,2,6,6-tetramethyltetrahydro-2H-pyran-4-yl)-1H-imidazol-2-yl)-4-methyl-4H-1,2,4-triazole], the IC50 on human N-type Ca channel [1] was 5.76 µM; on human N-type Ca channel [2] (setting [4]), more than 1 µM; against human N-type Ca channel [2] (N Type IC50 Data Qpatch Pulse=15, Pulse=15, concentration range 0.01-1 µM) it was more than 1 µM.

On to `COc1ncccc1-c1nc(C2CC(C)(C)OC(C)(C)C2)cn1Cc1ccccc1Cl` [Compound 27, 3-(1-(2-chlorobenzyl)-4-(2,2,6,6-tetramethyltetrahydro-2H-pyran-4-yl)-1H-imidazol-2-yl)-2-methoxypyridine], for which the 50% inhibitory concentration (IC50) at human N-type Ca channel [1] is 6.4 µM; against human N-type Ca channel [2] (N Type IC50 Data Qpatch Pulse=15, Pulse=15, concentration range 0.01-0.3 µM) it was 1.9 µM. For the same compound, at human N-type Ca channel [2] (setting [5]), the “N Type IC50 Data Qpatch Pulse=1” value was “poor fit(0.01-0.3 µM)”.

With `COc1ncccc1-c1nc(C2CC(C)(C)OC(C)(C)C2)cn1Cc1ccc(Cl)cc1` [Compound 28, 3-(1-(4-chlorobenzyl)-4-(2,2,6,6-tetramethyltetrahydro-2H-pyran-4-yl)-1H-imidazol-2-yl)-2-methoxypyridine], the concentration for half-maximal inhibition (IC50) on human N-type Ca channel [1] was 1.64 µM. Also, on human N-type Ca channel [2] (setting [5]), the “N Type IC50 Data Qpatch Pulse=1” value is listed as “poor fit(0.01-0.3 µM)”. In addition, the “N Type IC50 Data Qpatch Pulse=15” value at human N-type Ca channel [2] (setting [6]) is listed as “poor fit(0.01-0.3 µM)”.

For the compound `COc1ncccc1-c1nc(C2CC(C)(C)OC(C)(C)C2)cn1-c1ccc(C#N)c(C(F)(F)F)c1` [Compound 29, 4-(2-(2-methoxypyridin-3-yl)-4-(2,2,6,6-tetramethyltetrahydro-2H-pyran-4-yl)-1H-imidazol-1-yl)-2-(trifluoromethyl) benzonitrile], the IC50 at human N-type Ca channel [1] is 0.492 µM. The “N Type IC50 Data Qpatch Pulse=1” value at human N-type Ca channel [2] (setting [5]) is recorded as “poor fit(0.01-0.3 µM)”. Further, the “N Type IC50 Data Qpatch Pulse=15” value at human N-type Ca channel [2] (setting [6]) is recorded as “poor fit(0.01-0.3 µM)”.

With `COc1ncccc1-c1nc(C2CC(C)(C)OC(C)(C)C2)cn1-c1ccc(F)cc1F` [Compound 30, 3-(1-(2,4-difluorophenyl)-4-(2,2,6,6-tetramethyltetrahydro-2H-pyran-4-yl)-1H-imidazol-2-yl)-2-methoxypyridine], the IC50 at human N-type Ca channel [1] worked out at 0.321 µM. Besides, the inhibition at 10 µM at human N-type Ca channel [2] (setting [7]) is 67%; at human N-type Ca channel [2] (read-out: Qpatch Pulse=15 (percent inhibition)) it was 35%.

Take `COc1ncccc1-c1nc(C2CC(C)(C)OC(C)(C)C2)cn1-c1cccc(F)c1F` [Compound 31, 3-(1-(2,3-difluorophenyl)-4-(2,2,6,6-tetramethyltetrahydro-2H-pyran-4-yl)-1H-imidazol-2-yl)-2-methoxypyridine]: the IC50 at human N-type Ca channel [1] amounted to 0.769 µM; at human N-type Ca channel [2] (N Type IC50 Data Qpatch Pulse=1, Pulse=1, concentration range 0.01-0.3 µM), 1.58 µM. For the same compound, the “N Type IC50 Data Qpatch Pulse=15” value on human N-type Ca channel [2] (setting [6]) is given as “poor fit(0.01-0.3 ,u.M)”.

With `COc1ccccc1-c1nc(C2CC(C)(C)OC(C)(C)C2)cn1-c1cccc(C#N)c1` [Compound 32, 3-(2-(2-methoxyphenyl)-4-(2,2,6,6-tetramethyltetrahydro-2H-pyran-4-yl)-1H-imidazol-1-yl)benzonitrile], the IC50 on human N-type Ca channel [1] is 0.278 µM; at human N-type Ca channel [2] (setting [4]), more than 1 µM; on human N-type Ca channel [2] (setting [3]), more than 1 µM.

`COc1cnccc1-c1nc(C2CC(C)(C)OC(C)(C)C2)cn1-c1ccc(F)c(F)c1` [Compound 33, 4-(1-(3,4-difluorophenyl)-4-(2,2,6,6-tetramethyltetrahydro-2H-pyran-4-yl)-1H-imidazol-2-yl)-3-methoxypyridine]: the figures for the IC50 on human N-type Ca channel [1], against human N-type Ca channel [2] (setting [4]) and at human N-type Ca channel [2] (setting [3]) were 0.459 µM, more than 1 µM and more than 1 µM, respectively.

`COc1cc(-n2cc(C3CC(C)(C)OC(C)(C)C3)nc2-c2ccccc2OC)ccc1C#N` [Compound 34, 2-methoxy-4-(2-(2-methoxyphenyl)-4-(2,2,6,6-tetramethyltetrahydro-2H-pyran-4-yl)-1H-imidazol-1-yl)benzonitrile]: the IC50 at human N-type Ca channel [1] was 1.62 µM; on human N-type Ca channel [2] (setting [3]), more than 1 µM.

`COc1ccccc1-c1nc(C2CC(C)(C)OC(C)(C)C2)cn1-c1ccc(C#N)cc1F` [Compound 36, 3-fluoro-4-(2-(2-methoxyphenyl)-4-(2,2,6,6-tetramethyltetrahydro-2H-pyran-4-yl)-1H-imidazol-1-yl)benzonitrile]: the IC50 is 0.04 µM at human N-type Ca channel [1], 0.376 µM against human N-type Ca channel [2] (setting [4]) and more than 1 µM on human N-type Ca channel [2] (setting [3]).

On to `COc1ccc(-n2cc(C3CC(C)(C)OC(C)(C)C3)nc2-c2ccccc2OC)cc1C#N` [Compound 37, 2-methoxy-5-(2-(2-methoxyphenyl)-4-(2,2,6,6-tetramethyltetrahydro-2H-pyran-4-yl)-1H-imidazol-1-yl)benzonitrile], for which the half-inhibitory concentration (IC50) was 0.424 µM on human N-type Ca channel [1]; more than 1 µM on human N-type Ca channel [2] (read-out: N Type IC50 Data Qpatch Pulse=1, Pulse=1, concentration range 0.01-1 µM); more than 1 µM on human N-type Ca channel [2] (setting [3]).

With `COc1ccccc1-c1nc(C2CC(C)(C)OC(C)(C)C2)cn1-c1ccc(Cl)cn1` [Compound 39, 5-chloro-2-(2-(2-methoxyphenyl)-4-(2,2,6,6-tetramethyltetrahydro-2H-pyran-4-yl)-1H-imidazol-1-yl)pyridine], the IC50 turned out to be 0.163 µM on human N-type Ca channel [1], 1.7 µM against human N-type Ca channel [2] (setting [8]) and 1.9 µM against human N-type Ca channel [2] (setting [9]).

Turning to `COc1ncccc1-c1nc(C2CC(C)(C)OC(C)(C)C2)cn1-c1ccc(F)c(F)c1` [Compound 40, 3-(1-(3,4-difluorophenyl)-4-(2,2,6,6-tetramethyltetrahydro-2H-pyran-4-yl)-1H-imidazol-2-yl)-2-methoxypyridine], the IC50 on human N-type Ca channel [1] stood at 0.822 µM; against human N-type Ca channel [2] (setting [9]) it was 1.94 µM. Further, the inhibition at 10 µM on human N-type Ca channel [2] (setting [7]) was 52%.

Regarding `COc1ccccc1-c1nc(C2CC(C)(C)OC(C)(C)C2)cn1-c1ccc(Cl)c(F)c1` [Compound 41, 1-(4-chloro-3-fluorophenyl)-2-(2-methoxyphenyl)-4-(2,2,6,6-tetramethyltetrahydro-2H-pyran-4-yl)-1H-imidazole], the IC50 came to 0.131 µM at human N-type Ca channel [1] and 0.602 µM against human N-type Ca channel [2] (setting [9]). For the same compound, the inhibition at 10 µM on human N-type Ca channel [2] (setting [7]) turned out to be 71%.

For `COc1ccccc1-c1nc(C2CC(C)(C)OC(C)(C)C2)cn1-c1ccc(F)c(F)c1` [Compound 42, 1-(31,4-difluorophenyl)-2-(2-methoxyphenyl)-4-(2,2,6,6-tetramethyltetrahydro-2H-pyran-4-yl)-1H-imidazole], the concentration for half-maximal inhibition (IC50) on human N-type Ca channel [1] came out at 0.194 µM; against human N-type Ca channel [2] (setting [8]) it was 2.6 µM; on human N-type Ca channel [2] (setting [9]), 1.08 µM.

Consider `COc1ncccc1-c1nc(C2CC(C)(C)OC(C)(C)C2)cn1-c1ccc(C#N)cc1` [Compound 43, 4-(2-(2-methoxypyridin-3-yl)-4-(2,2,6,6-tetramethyltetrahydro-2H-pyran-4-yl)-1H-imidazol-1-yl)benzonitrile], for which the IC50 at human N-type Ca channel [1] was determined as 0.291 µM; against human N-type Ca channel [2] (setting [9]), 7.5 µM. For the same compound, at human N-type Ca channel [2] (setting [7]), the inhibition at 10 µM was found to be 34%.
